Laboratory results as given in PMC6010013, “Synthesis, physiochemical property and antimicrobial activity of novel quaternary ammonium salts” (Journal of Enzyme Inhibition and Medicinal Chemistry, 2017).

Assays:
Type in all cases: cell-based
β-H-tococcus = test: MBC, agar plating of dilutions without growth; settings: 99.9% bactericidal, read-out: Minimal bactericidal concentration (MBC)
From the text: (§1) In this paper, antimicrobial activities of 24 QASs were detected by quantitative tests. […] Benzalkonium chloride (BZK) and chlorhexidine acetate (CA) was selected as positive controls. Representative compound POT-C12QAS (2) which synthesised and evaluated in previous work was also taken as a reference compound in MIC, MBC and cytotoxicity tests. […]
(§2) agriculture were used as target pathogens in this study, including three strains of Gram-positive bacteria (S. Aureus, α-H-tococcus, β-H-tococcus), three strains of Gram-negative bacteria (E. coli, P. aeruginosa, Proteus vulgaris) and four strains of fungi (Canidia albicans, Cytospora mandshurica, Physalospora piricola, Aspergillus niger). The antimicrobial tests were assayed, according to standard CLSI methods for antimicrobial dilution susceptibility tests to measure the minimum inhibitory concentration (MIC) and minimum bactericidal concentration (MBC)2.
A broth tube dilution method was followed to determine the MIC values for all the screened compounds against the micro-organisms, and for comparison benzalkonium chloride (BZK) and chlorhexidine acetate (CA) was used as a reference. For sample preparation, each of the test compounds and reference were dissolved in DMSO or sterile water at a concentration of 1600 μg/mL, and further dilutions of the compounds and reference in culture medium MHB (Muller-Hinton Broth) were prepared at the required quantities of 400, 200, 100 etc., down to 0.39 μg/mL. Bacterial strains and fungal strains were maintained on MHA (Muller-Hinton Agar) medium at 37℃ or 28 ℃ for 12 h or 72h, respectively. The microbial inocula were prepared by suspension in 10 mL of culture medium for colonies from culture on MHA. The cell density of each inoculum was adjusted in culture medium of a 0.5 McFarland standard (1-2×10^8 CFU/mL). The final amount applied was 10^5 CFU/mL for bacteria and fungi. The microbial inocula were added to the twofold diluted samples. One growth control tube was prepared […] the addition of the compound and one blank tube was prepared without the addition of the microorganism. MIC values were read after incubation at 37℃ or 28 ℃ for bacterial and fungal strains, respectively. […]
(§3) was placed on agar plates in triplicate, and incubated at 37℃ or 28 ℃ for 12 h or 72h. The number of colonies on each plate was read, and the MBC was determined as the lowest concentration that achieved a 99.9% bactericidal in the agar plate.

Aspergillus niger = test: MBC, agar plating of dilutions without growth; settings: 99.9% bactericidal, read-out: Minimal bactericidal concentration (MBC)
From the text: as §1, §2
(§4) A broth tube dilution method was followed to determine the MIC values for all the screened compounds against the micro-organisms, and for comparison benzalkonium chloride (BZK) and chlorhexidine acetate (CA) was used as a reference. For sample preparation, each of the test compounds and reference were dissolved in DMSO or sterile water at a concentration of 1600 μg/mL, and further dilutions of the compounds and reference in culture medium MHB (Muller-Hinton Broth) were prepared at the required quantities of 400, 200, 100 etc., down to 0.39 μg/mL. Bacterial strains and fungal strains were maintained on MHA (Muller-Hinton Agar) medium at 37℃ or 28 ℃ for 12 h or 72h, respectively. The microbial inocula were prepared by suspension in 10 mL of culture medium for colonies from culture on MHA. The cell density of each inoculum was adjusted in culture medium of a 0.5 McFarland standard (1-2×10^8 CFU/mL). The final amount applied was 10^5 CFU/mL for bacteria and fungi. The microbial inocula were added to the twofold diluted samples. One growth control tube was prepared […] the addition of the compound and one blank tube was prepared without the addition of the microorganism. MIC values were read after incubation at 37℃ or 28 ℃ for bacterial and fungal strains, respectively. After 12 h or 72h, the last tube with no growth of micro-organisms was recorded to represent the MIC value expressed in μg/ml. All experiments were carried out three times. […]
as §3

Canidia albicans = test: MBC, agar plating of dilutions without growth; settings: 99.9% bactericidal, read-out: Minimal bactericidal concentration (MBC)
From the text: as §1, §2, §4, §3

Cytospora mandshurica = test: MBC, agar plating of dilutions without growth; settings: Cytospora, 99.9% bactericidal, read-out: Minimal bactericidal concentration (MBC)
From the text: as §1, §2, §4, §3

E. coli = test: MBC, agar plating of dilutions without growth; settings: Escherichia coli, 99.9% bactericidal, read-out: Minimal bactericidal concentration (MBC)
From the text: as §1, §2, §4, §3

P. aeruginosa = test: MBC, agar plating of dilutions without growth; settings: Pseudomonas aeruginosa, 99.9% bactericidal, read-out: Minimal bactericidal concentration (MBC)
From the text: as §1, §2, §4, §3

Physalospora piricola = test: MBC, agar plating of dilutions without growth; settings: 99.9% bactericidal, read-out: Minimal bactericidal concentration (MBC)
From the text: as §1, §2, §4, §3

Proteus vulgaris = test: MBC, agar plating of dilutions without growth; settings: 99.9% bactericidal, read-out: Minimal bactericidal concentration (MBC)
From the text: as §1, §2, §4, §3

S. aureus = test: MBC, agar plating of dilutions without growth; settings: Staphylococcus aureus, 99.9% bactericidal, read-out: Minimal bactericidal concentration (MBC)
From the text: as §1, §2, §4, §3

α-H-tococcus = test: MBC, agar plating of dilutions without growth; settings: 99.9% bactericidal, read-out: Minimal bactericidal concentration (MBC)
From the text: as §1, §2, §4, §3

Haemolysis assay = settings: human red blood cells (erythrocyte suspension), 1 h at 37 ℃, read-out: Haemolysis rate; for hemolysis at 1 h, 12.5 μg/mL: 12.50 μg/mL
Description: The surfactant may be absorbed and penetrate to the cell membrane, where it makes osmotic phenomena by altering the permeability of membrane, which in turn causes the cellular lysis. Haemolysis assay gives quantitative estimation about haemoglobin release when red blood cells are treated with QASs. Haemolytic assay of QASs at different concentration was carried out in Table 4. […] For 5a-b, 6a-b, 10a-c, 13a-b, and 16a-d, their safe concentration can more than 100 μg/mL. Compared with BZK and CA, all QASs were safe to be used when they circulated into the blood in low concentration. […]
The human blood from healthy individual was collected in a tube containing heparin, and the blood was centrifuged at 1500 rpm for 3 min. The […] (Erythrocyte) was collected and plasma was discarded and further washed five times with sterile normal saline solution. Then the cells were diluted to 0.2% of their volume with normal saline solution. 2 mL of the diluted red blood cells suspension was mixed with (a) 2 mL of normal salinesolution as a negative control; (b) 2 mL of distilled water as a positive control; (c) 2 mL of QAS solution which were dispersed into normal saline solution at the different concentrations ranging from 3.125 to 400 μg/mL. Then the mixtures were shaken well and incubated for 1 h at 37 ℃. Finally, the mixtures were centrifuged for 5min at 2000 r/min and the absorbances of supernatant at 540 nm was measured by a microplate reader (Multiskan MK3-Thermo Labsystems, USA). The hemolysis ratio was calculated as follows: The hemolysis ratio(%) = (OD Sample−OD Negative)/(OD Positive −OD Negative) ×100%. The hemolysis evaluation of QASs was performed in triplicate and results were expressed as the mean ± SD.

| SMILES | MBC (β-H-tococcus) | MBC (Aspergillus niger) | MBC (Canidia albicans) | MBC (Cytospora mandshurica) | MBC (E. coli) | MBC (P. aeruginosa) | MBC (Physalospora piricola) | MBC (Proteus vulgaris) | MBC (S. aureus) | MBC (α-H-tococcus) | hemolysis at 1 h, 6.25 μg/mL (Haemolysis assay) | hemolysis at 1 h, 12.5 μg/mL (Haemolysis assay) | hemolysis at 1 h, 25 μg/mL (Haemolysis assay) | hemolysis at 1 h, 50 μg/mL (Haemolysis assay) | hemolysis at 1 h, 100 μg/mL (Haemolysis assay) | hemolysis at 1 h, 200 μg/mL (Haemolysis assay) | hemolysis at 1 h, 400 μg/mL (Haemolysis assay) |
| --- | --- | --- | --- | --- | --- | --- | --- | --- | --- | --- | --- | --- | --- | --- | --- | --- | --- |
| C[N+](CCO)(CCO)CCCCCCCCCCCCSc1nc2ccccc2s1 [Compound 13d] | ~3.12 µg/mL | 6.25 µg/mL | 6.25 µg/mL | ~6.25 µg/mL | 25 µg/mL | 25 µg/mL | 3.12 µg/mL | 25 µg/mL | 6.25 µg/mL | 12.5 µg/mL | 0.56 ± 0.13% | 1.5 ± 0.72% | 3.98 ± 1.03% | 11.2 ± 2.86% | 48.6 ± 3.54% | 65.2 ± 3.91% | 83.7 ± 4.12% |
| C[N+](CCO)(CCO)CCCCCCCCCCCCSc1nnc(-c2ccc(C(F)(F)F)cc2)o1.[Br-] [Compound 6d] | 3.12 µg/mL | 6.25 µg/mL | 12.5 µg/mL | 6.25 µg/mL | 25 µg/mL | 50 µg/mL | 1.56 µg/mL | 25 µg/mL | 12.5 µg/mL | 6.25 µg/mL | 0.64 ± 0.19% | 1.05 ± 0.28% | 2.02 ± 3.45% | 4.85 ± 4.65% | 36.4 ± 6.35% | 85.6 ± 4.86% | 92.5 ± 3.87% |
